Where two headings read alike, the source gives them in different places.
Key:
[1] = test system: L. mexicana intracellular amastigotes; test: Intracellular amastigote assay, L. mexicana; type: cell-based; conditions: Leishmania mexicana, read-out: EC50 ± SD, intracellular amastigotes, L. mexicana
Text: (§1) The strains used in this research were MHOM/BR/77/LTB0016 of L. amazonensis from the Pedro Kouri Institute of Tropical Medicine Cuba strains collection, MHOM/FR/78/LEM75 of L. infantum from the Department of Parasitology, Faculty of Pharmacy of the Complutense University of Madrid Spain, and MNYC/BZ/62/M379 of L. mexicana from the Laboratory of Molecular Immunobiochemistry and Heart Diseases UNAM-INC Mexico Research Unit. The parasites were obtained from the skin lesions of previously infected BALB/c mice and maintained at 26 °C in Schneider medium (SIGMA, St. Louis, MO, USA) and supplemented with antibiotics (penicillin sodium 200 IU/mL and streptomycin 200 μg/mL SIGMA, St. Louis, MO, USA) and 10% fetal bovine serum (FBS, SIGMA, St. Louis, MO, USA), and inactivated with heat (56 °C, 30 min). The promastigotes, once isolated, were kept in the exponential multiplication phase by successive subcultures every 3 or 4 days until the time of use.
(§2) Intracellular amastigote assay: Macrophages were seeded in 96-well plates at an initial density of 10^5 cells/mL in a final volume of 200 µL per well. After 2 h of incubation at 33 °C and 5% CO2, the cell monolayer was infected with a culture of promastigotes in the stationary phase of growth at a ratio of 10:1 (promastigotes: macrophages) and incubated under the same conditions for 4 h. The compounds were tested in serial dilutions of 1/2.5 (15–0.02 μM). The treated cultures were then incubated for 48 h under similar conditions. After incubation, the RPMI medium was removed and replaced with Schneider’s medium. Cultures were incubated for 72 h at 26 °C to allow the surviving amastigotes to transform into promastigotes and replicate.
(§3) Every concentration of the test compounds was assessed in quadruplicate.
(§4) Cell viability was assessed using the resazurin transformation method. After the incubation period, 20 μL of 3 mM resazurin solution prepared in sterile PBS was added to each well. Reading was performed at 540 nm excitation and 590 nm emission wavelengths after 8 h of incubation in a 96-well plate reader (SUMA®, Habana, Cuba). The mean fluorescence intensity was calculated for each concentration. From the mean values of fluorescence and the corresponding product concentrations, a non-linear fit to the Emax sigmoid model was performed, and the mean inhibitory concentrations (IC50), mean effective concentrations (EC50), and the mean cytotoxic concentration (CC50) were estimated. The selectivity index was calculated as SIp = CC50/IC50 and SIa = CC50/EC50 for the promastigote and amastigote stages, respectively.

[2] = test system: L. infantum intracellular amastigotes; test: Intracellular amastigote assay, L. infantum; type: cell-based; conditions: read-out: EC50 ± SD
Text: as §1, §2, §3, §4

[3] = test system: L. mexicana promastigotes; test: Susceptibility assay in promastigotes, L. mexicana; type: cell-based; conditions: 72 h
Text: as §1
(§5) Susceptibility assay in promastigotes: Promastigotes culture in the exponential growth phase were seeded in 96-well plates (10^6 parasites/mL) at a final volume of 200 μL/well. Compounds were tested in serial 1/2.5 dilutions (130–0.2 μM). The treated cultures were incubated for 72 h at 26 °C.
as §3, §4

[4] = test system: L. infantum promastigotes; test: Susceptibility assay in promastigotes, L. infantum; type: cell-based; conditions: 72 h, read-out: IC50 ± SD
Text: as §1, §5, §3, §4

[5] = test system: L. amazonensis promastigotes; test: Susceptibility assay in promastigotes, L. amazonensis; type: cell-based; conditions: 72 h, read-out: IC50 ± SD
Text: as §1, §5, §3, §4

[6] = Cytotoxicity in mouse peritoneal macrophages (resazurin); type: cell-based; conditions: concentration that causes lysis of 50% of BALB/c mouse peritoneal macrophages
Experimental: To obtain peritoneal macrophages, the mice were sacrificed by cervical dislocation, and the resident cells in the peritoneum were extracted by washing with RPMI (Roswell Park Memorial Institute, Buffalo, NY, USA) medium and cold (4 °C) supplemented with 10% FBS and antibiotics (sodium penicillin 200 IU/mL and streptomycin 200 μg/mL). Cell concentration was calculated using Neubauer chamber counts in an optical microscope (Motic, Xiamen, China) with a 40× objective and 10× eyepieces (400× magnification).
Cytotoxicity in mouse peritoneal macrophages: Peritoneal macrophages were adjusted to 10^5 macrophages/mL, and 200 μL was seeded per well in a 96-well plate and incubated at 33 °C and 5% CO2 for 2 h. Subsequently, the non-attached cells were discarded, and the monolayer was washed with PBS. The compounds were tested in serial dilutions of 1/2.5 (650–1.0 μM). The treated cultures were incubated for 48 h at 33 °C in a humidified atmosphere containing 5% CO2.
as §3, §4

[7] = test system: L. amazonensis intracellular amastigotes; test: Intracellular amastigote assay, L. amazonensis; type: cell-based; conditions: read-out: EC50 ± SD
Text: as §1, §2, §3, §4

[8] = test system: promastigotes of L. amazonensis; test: Scanning and transmission electron microscopy of treated promastigotes; type: cell-based; conditions: for Structural damage, scanning electron microscopy: L. amazonensis promastigotes treated at IC50, ½ IC50, ¼ IC50; for Ultrastructural damage, transmission electron microscopy: L. amazonensis promastigotes, 72 h of incubation at IC50, ½ IC50, ¼ IC50
Text: The concentrations of compounds selected for the study of structural and ultrastructural damage were those corresponding to IC50, ½ IC50, and ¼ IC50 for compound NV8 (reported in this study) and the previously reported compound VATR 131 [21]. The procedure for the treatment of cultures was the same as that described above for the in vitro tests on promastigotes of L. amazonensis. Two negative controls were used: a DMSO-treated culture (0.1%) and an untreated culture.
At the end of the exposure to the compounds, the parasites were washed once with PBS and immediately fixed with 2.5% glutaraldehyde in PBS for 1 h at room temperature. After a thorough wash with PBS, the parasites were fixed with 1% OsO4 in PBS at 4 °C for 1 h and then washed with PBS. The parasites were dehydrated in increasing concentrations of ethanol. Drying was carried out at the critical point of CO2 in a Samdry 780 apparatus (USA). Next, they were evaporated with gold in a Denton Vacuum Desk (USA). Finally, the samples were observed and micrographed using a JSM 6510LB-JEOL microscope at 30 keV.
Promastigotes were washed with PBS and fixed with 2.5% glutaraldehyde solution for 1 h at 4 °C. They were then fixed with a solution of 1% OsO4 in the same buffer at 4 °C and in darkness for 1 h. Promastigotes were washed with PBS at RT and dehydrated in an ethanolic solution in increasing order by up to 100%. They were then included in the epoxy resin using specific molds for polymerization and maintained at 60 °C for a minimum period of 72 h. The blocks were cut with an ultramicrotome (Reichert Jung, Austria) into thin sections. The slices were stained with uranyl acetate and lead citrate and subsequently micrographed using a JEM 1400 transmission electron microscope (JEOL, Ltd., Tokyo, Japan).

Leishmania spp. [9] = test: Antileishmanial activity, species not separated (pooled statement or literature); type: cell-based; conditions: all Leishmania species; active = IC50 ≤ 1 μM and SI ≥ 10
[10] = test system: L. amazonensis promastigotes; parameters: method as in PMID 37915499; conditions: promastigotes of L. amazonensis; previously reported compound; cited from earlier work
Leishmania spp. [11] = conditions: promastigote stage, drug used in the clinic; cited from earlier work
[12] = test system: amastigotes of L. amazonensis; conditions: cited from earlier work
[13] = Leishmania mexicana, read-out: IC50 ± SD, promastigotes, L. mexicana, 72 h
[14] = Leishmania infantum, intracellular amastigotes, L. infantum
[15] = intracellular amastigotes, L. infantum
[16] = Leishmania infantum, promastigotes, L. infantum
[17] = BALB/c, mouse, peritoneal macrophages
[18] = Leishmania amazonensis, intracellular amastigotes, L. amazonensis
[19] = Leishmania amazonensis, promastigotes, L. amazonensis

| Structure (SMILES) | EC50 [1] [µM] | IC50 [3, 13] [µM] | EC50 [2, 14] [µM] | IC50 [4, 16] [µM] | CC50 at 48 h [6, 17] [µM] | IC50 [5, 19] [µM] | other results |
| --- | --- | --- | --- | --- | --- | --- | --- |
| C[C@@H]1[C@H](O)[C@@H](C)/C=C/C=C/C=C/C=C/C=C/C=C/C=C/[C@H](O[C@@H]2O[C@H](C)[C@@H](O)[C@H](N)[C@@H]2O)C[C@@H]2O[C@](O)(C[C@@H](O)C[C@@H](O)[C@H](O)CC[C@@H](O)C[C@@H](O)CC(=O)O[C@H]1C)C[C@H](O)[C@H]2C(=O)O [AmB, Amphotericin B, reference compound] | 0.036 ± 0.008 | 0.046 ± 0.012 | – | – | – | – | EC50 ([2]; Leishmania infantum): 0.6 ± 0.21 µM; IC50 ([4]; Leishmania infantum): 0.28 ± 0.01 µM; IC50 ([5]; Leishmania amazonensis): 0.03 ± 0.01 µM; CC50 at 48 h [6]: 5.8 ± 0.5 µM; EC50 ([7]; Leishmania amazonensis): 0.034 ± 0.006 µM |
| CN(C)CCOc1nn(Cc2ccccc2)c2ccc([N+](=O)[O-])cc12 [NV4] | – | 2.3 ± 0.4 | ≤ 5 | ≤ 1 | 67.1 ± 8.9 | – | EC50 [2, 15]: 3.42 ± 1.8 µM; IC50 ([4]; promastigotes, L. infantum): 0.52 ± 0.05 µM; EC50 [7, 18]: 12.3 ± 0.7 µM |
| CN(C)CCCOc1nn(Cc2ccccc2)c2ccc([N+](=O)[O-])cc12 [NV6] | – | – | ≤ 5 | ≤ 1 | 61 ± 6.9 | – | EC50 [2, 15]: 3.79 ± 1.46 µM; IC50 ([4]; promastigotes, L. infantum): 0.69 ± 0.063 µM |
| O=[N+]([O-])c1ccc2c(c1)c(OCCN1CCCCC1)nn2Cc1ccccc1 [NV7] | 3.1 ± 1.05 | – | 12.8 ± 0.13 | – | 24.4 ± 6.7 | – | EC50 [7, 18]: 5.61 ± 0.69 µM |
| O=[N+]([O-])c1ccc2c(c1)c(OCCCN1CCCCC1)nn2Cc1ccccc1 [NV8] | – | – | – | – | 23.2 ± 5 | – | Structural damage, scanning electron microscopy [8]: the bodies were completely swollen and spheroidal in appearance; Ultrastructural damage, transmission electron microscopy [8]: most of the parasites are atypical; many are swollen or deformed and present large cytosolic vacuoles |
| NCCCOc1nn(Cc2ccccc2)c2ccc([N+](=O)[O-])cc12 [NV9] | – | 2.8 ± 3 | 9.71 ± 0.4 | ≤ 1 | 47.9 ± 10.4 | ≤ 1 | IC50 ([4]; promastigotes, L. infantum): 0.59 ± 0.16 µM; IC50 ([5]; promastigotes, L. amazonensis): 0.81 ± 0.17 µM |
| NCCOc1nn(Cc2ccccc2)c2ccc([N+](=O)[O-])cc12 [NV10] | – | 4.5 ± 0.5 | – | ≤ 1 | 46.7 ± 7.7 | ≤ 1 | IC50 ([4]; promastigotes, L. infantum): 0.93 ± 0.27 µM; IC50 ([5]; promastigotes, L. amazonensis): 0.99 ± 0.14 µM; EC50 [7, 18]: ≤ 5 µM; EC50 ([7]; intracellular amastigotes, L. amazonensis): 4.35 ± 0.9 µM |
| O=[N+]([O-])c1ccc2c(c1)c(OCCBr)nn2Cc1ccccc1 [NV11] | – | 9.38 ± 0.13 | – | 20.4 ± 1.3 | – | 20.7 ± 1.38 | Classification against promastigotes (Leishmania spp. [9]): inactive |
| O=[N+]([O-])c1ccc2c(c1)c(OCCCCCBr)nn2Cc1ccccc1 [NV12] | – | 2.8 ± 1.1 | – | 32.96 ± 0.25 | – | 2.88 ± 1.47 | Classification against promastigotes (Leishmania spp. [9]): inactive |
| CNCCOc1nn(Cc2ccccc2)c2ccc([N+](=O)[O-])cc12 [NV13] | 11.6 ± 0.7 | – | 16.2 ± 0.54 | – | 61.4 ± 9.4 | ≤ 1 | IC50 ([5]; promastigotes, L. amazonensis): 0.82 ± 0.27 µM; EC50 [7, 18]: 5.66 ± 0.53 µM |
| CN(C)CCCCCOc1nn(Cc2ccccc2)c2ccc([N+](=O)[O-])cc12 [NV14] | 8.2 ± 0.2 | – | – | 0.93 ± 0.18 | 2.5 ± 0.7 | 0.5 ± 0.22 | – |
| CNCCCCCOc1nn(Cc2ccccc2)c2ccc([N+](=O)[O-])cc12 [NV15] | 1.53 ± 0.13 | – | – | 1.27 ± 0.06 | 5.6 ± 2.5 | 1.88 ± 1.34 | – |
| O=[N+]([O-])c1ccc2c(c1)c(OCCCCCN1CCCCC1)nn2Cc1ccccc1 [NV16] | 4.29 ± 0.48 | ≤ 1 | – | 1.41 ± 0.03 | 21.1 ± 7.1 | – | IC50 ([3]; read-out: IC50 ± SD, promastigotes, L. mexicana): 0.5 ± 0.1 µM |
| NCCCCCOc1nn(Cc2ccccc2)c2ccc([N+](=O)[O-])cc12 [NV17] | – | 2.9 ± 0.1 | 11.8 ± 1.04 | – | 7.74 ± 3 | 1.01 ± 0.39 | – |
| CC(=O)OCCn1c2ccc([N+](=O)[O-])cc2c(=O)n1Cc1ccccc1 [VATR 131] | – | – | – | – | – | – | Structural damage, scanning electron microscopy [8]: an alteration in the morphology of the parasites was observed from the lowest concentration of the compound; Ultrastructural damage, transmission electron microscopy [8]: very similar to those observed for NV8 at concentrations equivalent to ¼ IC50 and ½ IC50; IC50 [10]: 2.13 µM |
| CCCCCCCCCCCCCCCCOP(=O)([O-])OCC[N+](C)(C)C [miltefosine] | – | – | – | – | – | – | IC50 (Leishmania spp. [11]): 50.7 µM |
| N=C(N)c1ccc(OCCCCCOc2ccc(C(=N)N)cc2)cc1 [pentamidine] | – | – | – | – | – | – | IC50 (Leishmania spp. [11]): 30 µM |
| c1ccc2ncccc2c1 [quinoline] | – | – | – | – | – | – | EC50 [12]: 0.54 µM |
| C[C@@H](c1nc(-c2ccc(C#N)cc2)cs1)[C@](O)(Cn1cncn1)c1ccc(F)cc1F [ravuconazole] | – | – | – | – | – | – | EC50 [12]: 5.11 µM |

Source: PMC11477194, “3-Alkoxy-1-Benzyl-5-Nitroindazole Derivatives Are Potent Antileishmanial Compounds” (International Journal of Molecular Sciences, 2024)
